Laboratory results from paper PMC4860574, “Bafetinib (INNO-406) reverses multidrug resistance by inhibiting the efflux function of ABCB1 and ABCG2 transporters” (Scientific Reports, 2016).

Legend:
[1] = target: T1, ABCG2 (Homo sapiens, UniProt Q9UNQ0); assay: inhibition of vanadate-sensitive ATPase activity in ABCG2 membranes; assay type: biochemical; details: read-out: concentration required to obtain 50% of maximal inhibition
T1 construct: cell assays in NCI-H460/MX20 and HEK/ABCG2-R482
T1 sequence (Q9UNQ0 1-655): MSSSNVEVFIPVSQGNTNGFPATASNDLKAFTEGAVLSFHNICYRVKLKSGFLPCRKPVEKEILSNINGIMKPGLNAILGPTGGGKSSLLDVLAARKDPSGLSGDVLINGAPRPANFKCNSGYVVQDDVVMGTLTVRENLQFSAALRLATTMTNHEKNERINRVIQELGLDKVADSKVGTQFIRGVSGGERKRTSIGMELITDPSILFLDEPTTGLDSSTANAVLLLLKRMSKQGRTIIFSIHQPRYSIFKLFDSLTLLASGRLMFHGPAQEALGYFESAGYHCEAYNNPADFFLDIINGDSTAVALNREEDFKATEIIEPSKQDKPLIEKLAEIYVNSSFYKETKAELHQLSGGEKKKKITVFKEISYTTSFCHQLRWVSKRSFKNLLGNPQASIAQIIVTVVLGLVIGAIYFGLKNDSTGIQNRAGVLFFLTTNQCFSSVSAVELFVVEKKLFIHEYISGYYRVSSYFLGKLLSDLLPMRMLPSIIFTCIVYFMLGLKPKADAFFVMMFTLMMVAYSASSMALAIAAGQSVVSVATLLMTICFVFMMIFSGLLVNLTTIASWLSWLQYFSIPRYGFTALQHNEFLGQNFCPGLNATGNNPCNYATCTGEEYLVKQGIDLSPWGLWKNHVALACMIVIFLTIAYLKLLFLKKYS
Excerpt: inhibition of vanadate-sensitive ATPase activity in ABCG2 membranes on ABCG2 | bafetinib inhibited the ATPase activity of ABCG2 in a concentration-dependent manner

[2] = target: T2, ABCB1 (Homo sapiens, UniProt P08183); assay: stimulation of vanadate-sensitive ATPase activity in ABCB1 membranes; assay type: biochemical; details: read-out: concentration required to obtain 50% of maximal stimulation
T2 construct: full length, wild type; cell assays in SW620/Ad300 and HEK/ABCB1
T2 sequence (P08183 whole entry): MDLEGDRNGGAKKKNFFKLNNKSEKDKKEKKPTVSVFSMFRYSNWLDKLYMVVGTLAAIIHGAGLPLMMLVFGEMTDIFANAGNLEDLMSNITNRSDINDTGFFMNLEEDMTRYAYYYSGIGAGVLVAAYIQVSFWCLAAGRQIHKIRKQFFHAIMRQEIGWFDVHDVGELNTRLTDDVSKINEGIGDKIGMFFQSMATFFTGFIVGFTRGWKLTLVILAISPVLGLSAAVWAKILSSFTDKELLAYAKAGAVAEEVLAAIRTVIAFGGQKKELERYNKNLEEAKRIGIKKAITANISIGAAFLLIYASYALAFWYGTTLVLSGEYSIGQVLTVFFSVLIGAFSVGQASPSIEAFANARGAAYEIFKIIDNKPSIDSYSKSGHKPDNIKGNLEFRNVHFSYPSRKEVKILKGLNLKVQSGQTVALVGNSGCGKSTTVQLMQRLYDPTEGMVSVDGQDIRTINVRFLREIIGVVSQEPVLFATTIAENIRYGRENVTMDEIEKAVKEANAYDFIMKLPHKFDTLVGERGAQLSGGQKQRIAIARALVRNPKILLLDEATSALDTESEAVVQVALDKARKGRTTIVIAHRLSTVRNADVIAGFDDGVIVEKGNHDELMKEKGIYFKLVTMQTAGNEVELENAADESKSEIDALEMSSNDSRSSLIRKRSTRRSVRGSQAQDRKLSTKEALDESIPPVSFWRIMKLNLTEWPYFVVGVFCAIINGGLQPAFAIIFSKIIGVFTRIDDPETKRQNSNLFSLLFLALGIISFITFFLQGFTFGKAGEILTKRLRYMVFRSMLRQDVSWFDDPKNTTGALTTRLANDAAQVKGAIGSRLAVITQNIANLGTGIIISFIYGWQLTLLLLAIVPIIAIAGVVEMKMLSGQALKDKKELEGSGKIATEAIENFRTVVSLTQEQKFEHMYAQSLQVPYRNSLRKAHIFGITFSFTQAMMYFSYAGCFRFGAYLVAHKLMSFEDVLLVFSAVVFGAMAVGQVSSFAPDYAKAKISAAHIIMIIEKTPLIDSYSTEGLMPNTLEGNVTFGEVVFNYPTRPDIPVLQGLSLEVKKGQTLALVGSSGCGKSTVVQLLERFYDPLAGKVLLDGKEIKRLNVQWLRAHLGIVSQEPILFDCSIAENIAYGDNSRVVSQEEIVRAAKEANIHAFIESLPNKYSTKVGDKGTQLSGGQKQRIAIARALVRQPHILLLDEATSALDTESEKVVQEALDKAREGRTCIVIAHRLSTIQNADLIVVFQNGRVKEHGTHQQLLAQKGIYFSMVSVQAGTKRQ

## Cc1ccc(NC(=O)c2ccc(CN3CC[C@H](N(C)C)C3)c(C(F)(F)F)c2)cc1Nc1nccc(-c2cncnc2)n1 [bafetinib]
[1]
  IC50: 2.97 µM
[2]
  EC50: 0.64 µM
